The values that follow come from patent US7989428B2, “Combined telomerase inhibitor and gemcitabine for the treatment of cancer” (Geron Corporation, priority 2006, dated 2011).

In this assay the test system is A549 tumor cells. Kind of assay: A549 subcutaneous mouse xenograft model, GRN163L and/or gemcitabine. Type of assay: in vivo, mice. Particulars: A549 s.c. xenograft, 60 days; gemcitabine 100 mg/kg IP, GRN163L 15 mg/kg IP. As for the experimental part:
In one exemplary method, gemcitabine is administered in combination with a telomerase-inhibitor oligonucleotide targeted against hTR. […] Groups of 10 mice each were treated in accordance with one of three protocols: (1) Gemcitabine (100 mg/kg, IP) was administered 2 times/week for the first 1.5 weeks, then once weekly for the remainder of the study. […] (3) The two agents were administered together according to the individual-agent protocols.

As to `Cl.Nc1ccn([C@@H]2O[C@H](CO)[C@@H](O)C2(F)F)c(=O)n1` (single isomer, unassigned) [gemcitabine, 2′-deoxy-2′,2′-difluorocytidine monohydrochloride ((beta)-isomer)], the “tumor growth during the treatment period” value is on record as “effective in preventing tumor growth”.
